Laboratory results taken from ChEMBL document CHEMBL5096216, “Rational Design, Synthesis, and Biological Evaluation of Novel S1PR2 Antagonists for Reversing 5-FU-Resistance in Colorectal Cancer” (J Med Chem, 2022).
Calls of active or inactive are those of the source. The calls are words filed in the database; no cut-off is given here.

Key:
[1] = target: Sphingosine 1-phosphate receptor 2 (Homo sapiens, UniProt O95136); test: Binding affinity to S1PR2 (unknown origin) assessed as dissociation constant by surface plasmon resonance analysis
[2] = target: T1, Sphingosine 1-phosphate receptor 4 (Homo sapiens, UniProt O95977); test: Binding affinity to S1PR4 (unknown origin) assessed as dissociation constant by surface plasmon resonance analysis
T1 sequence (O95977 whole entry): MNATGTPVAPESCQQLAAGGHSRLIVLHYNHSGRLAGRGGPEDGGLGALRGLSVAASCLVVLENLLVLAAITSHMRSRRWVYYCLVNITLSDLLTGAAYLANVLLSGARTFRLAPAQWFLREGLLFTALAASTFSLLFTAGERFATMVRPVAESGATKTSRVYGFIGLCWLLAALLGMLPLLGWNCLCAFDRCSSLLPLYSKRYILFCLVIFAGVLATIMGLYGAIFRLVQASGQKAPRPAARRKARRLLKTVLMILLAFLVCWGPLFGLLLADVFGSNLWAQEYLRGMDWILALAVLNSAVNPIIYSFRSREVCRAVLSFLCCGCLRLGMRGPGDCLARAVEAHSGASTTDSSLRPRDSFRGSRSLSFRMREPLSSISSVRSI

[3] = target: Sphingosine 1-phosphate receptor 5 (Homo sapiens, UniProt Q9H228); test: Binding affinity to S1PR5 (unknown origin) assessed as dissociation constant by surface plasmon resonance analysis
[4] = Metabolic stability in human plasma assessed as half life at 1 mg/ml incubated for 48 hrs by HPLC analysis; type: ADME, cell-free
[5] = Metabolic stability in rat plasma assessed as half life at 1 mg/ml incubated for 48 hrs by HPLC analysis; type: ADME, cell-free
[6] = Metabolic stability in rat liver homogenate assessed as half life at 1 mg/ml incubated for 48 hrs by HPLC analysis; type: ADME, tissue-based
[7] = Metabolic stability in rat plasma assessed as compound remaining at 1 mg/ml measured after 48 hrs by HPLC analysis; type: ADME, cell-free; settings: read-out: Stability
[8] = Metabolic stability in rat liver homogenate assessed as compound remaining at 1 mg/ml measured after 48 hrs by HPLC analysis; type: ADME, tissue-based; settings: read-out: Stability
HCT-116 [9] = test: Antiproliferative activity against human HCT-116 cells overexpressing DPD assessed as reduction in cell viability incubated for 48 hrs by MTT assay; type: functional, cell-based; settings: HCT-116, 48 h
SW620/5-FU [10] = test: Reversal of 5-FU resistance in human SW620/5-FU cells assessed as reduction in cell viability incubated for 48 hrs in presence of 5-FU by MTT assay; type: functional, cell-based
HT-29 [11] = test: Antiproliferative activity against human HT-29 cells assessed as reduction in cell viability incubated for 48 hrs by MTT assay; type: functional, cell-based; settings: HT-29, 48 h
NCM460 = test: Cytotoxicity against human NCM460 cells assessed as reduction in cell viability incubated for 48 hrs in presence of 5-FU by MTT assay; type: functional, cell-based; settings: NCM460, 48 h
HT-29 [12] = test: Downregulation of JMJD3 expression in 5-FU resistant human HT-29 cells incubated for 12 hrs by Western blot analysis; type: functional, cell-based; settings: dose 2.5-20 µM, DDE = dose-dependent effect
SW620/5-FU [13] = test: Downregulation of DPD expression in human SW620/5-FU cells incubated for 12 hrs by Western blot analysis; type: functional, cell-based; settings: dose 2.5-20 µM, DDE = dose-dependent effect
HT-29 [14] = test: Upregulation of H3K27me3 expression in 5-FU resistant human HT-29 cells incubated for 12 hrs by Western blot analysis; type: functional, cell-based; settings: dose 2.5-20 µM, DDE = dose-dependent effect
HCT-116 [15] = test: Reversal of 5-FU resistance in human HCT-116 cells overexpressing DPD assessed as fold reduction in 5-Fluorouracil IC50 at 2 uM incubated for 48 hrs; type: functional
HCT-116 [16] = test: Reversal of 5-FU resistance in human HCT-116 cells overexpressing DPD assessed as fold reduction in 5-Fluorouracil IC50 at 5 uM incubated for 48 hrs; type: functional
HT-29 [17] = test: Reversal of 5-FU resistance in human HT-29 cells assessed as fold reduction in 5-Fluorouracil IC50 at 2 uM incubated for 48 hrs; type: functional
SW620/5-FU [18] = test: Inhibition of FBAL stimulated DPD expression in human SW620/5-FU cells at 10 uM incubated for 72 hrs by Western blot analysis; type: functional, cell-based
SW620/5-FU [19] = test: Induction of apoptosis in human SW620/5-FU cells assessed as viable cells at 10 uM incubated for 24 hrs by Annexin-V/PI staining based flow cytometry assay (reference value: 94.3%); type: functional; settings: read-out: Activity
SW620/5-FU [20] = test: Induction of apoptosis in human SW620/5-FU cells at 20 to 40 uM in presence of 5-FU by Hochest33342 staining based assay; type: functional, cell-based; settings: dose 20-40 µM
SW620/5-FU [21] = test: Induction of apoptosis in human SW620/5-FU cells assessed as early apoptotic cells at 10 uM incubated for 24 hrs by Annexin-V/PI staining based flow cytometry assay (reference value: 2.73%); type: functional
SW620/5-FU [22] = test: Induction of apoptosis in human SW620/5-FU cells assessed as late apoptotic cells at 10 uM incubated for 24 hrs by Annexin-V/PI staining based flow cytometry assay (reference value: 2.97%); type: functional
SW620/5-FU [23] = test: Induction of apoptosis in human SW620/5-FU cells assessed as early apoptotic cells at 20 uM incubated for 24 hrs by Annexin-V/PI staining based flow cytometry assay (reference value: 2.73%); type: functional
SW620/5-FU [24] = test: Induction of apoptosis in human SW620/5-FU cells assessed as late apoptotic cells at 20 uM incubated for 24 hrs by Annexin-V/PI staining based flow cytometry assay (reference value: 2.97%); type: functional
SW620/5-FU [25] = test: Induction of apoptosis in human SW620/5-FU cells assessed as early apoptotic cells at 10 uM incubated for 24 hrs in presence of 5-FU by Annexin-V/PI staining based flow cytometry assay (reference value: 2.73%); type: functional
SW620/5-FU [26] = test: Induction of apoptosis in human SW620/5-FU cells assessed as late apoptotic cells at 10 uM incubated for 24 hrs in presence of 5-FU by Annexin-V/PI staining based flow cytometry assay (reference value: 2.97%); type: functional
SW620/5-FU [27] = test: Induction of apoptosis in human SW620/5-FU cells assessed as viable cells at 20 uM incubated for 24 hrs in presence of 5-FU by Annexin-V/PI staining based flow cytometry assay (reference value: 94.3%); type: functional; settings: read-out: Activity
SW620/5-FU [28] = test: Antitumor activity against human SW620/5-FU cells xenografted in nude mouse assessed as tumor growth inhibition at 5 mg/kg/day, iv in presence of 5-FU; type: functional; settings: read-out: TGI
[29] = Toxicity in nude mouse xenografted with human SW620/5-FU cells assessed as morphological changes in kidney at 1 to 10 mg/kg/day, iv by hematoxylin-eosin staining based analysis; type: organism-based; settings: in vivo, dose 1-10 mg/kg/day
HCT-116 [30] = test: cells; settings: Homo sapiens, HCT-116, 48 h
Description: Reversal of 5-FU resistance in human HCT-116 cells overexpressing DPD assessed as reduction in 5-Fluorouracil IC50 at 2 uM incubated for 48 hrs (Rvb = 1836.66 +/- 87.95 %)

SW620/5-FU [31] = test: cells; settings: Homo sapiens, 48 h
HT-29 [32] = test: cells; settings: Homo sapiens, HT-29, 48 h
Description: Reversal of 5-FU resistance in human HT-29 cells assessed as reduction in 5-Fluorouracil IC50 at 2 uM incubated for 48 hrs (Rvb = 2768.36 +/- 89.25 %)

HT-29 [33] = test: cells; settings: Homo sapiens, HT-29, 48 h; remark: listed apart in the source
Description: Reversal of 5-FU resistance in human HT-29 cells assessed as reduction in 5-Fluorouracil IC50 at 5 uM incubated for 48 hrs (Rvb = 2768.36 +/- 89.25 %)

Chain of Sphingosine 1-phosphate receptor 2 (O95136 whole entry): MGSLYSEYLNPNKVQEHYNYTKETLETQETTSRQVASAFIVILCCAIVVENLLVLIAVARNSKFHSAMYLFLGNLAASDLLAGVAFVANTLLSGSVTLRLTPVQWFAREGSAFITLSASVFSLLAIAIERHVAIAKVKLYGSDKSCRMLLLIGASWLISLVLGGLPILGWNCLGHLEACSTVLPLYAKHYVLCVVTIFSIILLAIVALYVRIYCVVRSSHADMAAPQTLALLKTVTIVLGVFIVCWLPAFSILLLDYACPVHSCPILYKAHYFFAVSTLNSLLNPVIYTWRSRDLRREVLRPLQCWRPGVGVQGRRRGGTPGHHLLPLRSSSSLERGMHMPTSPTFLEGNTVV
Chain of Sphingosine 1-phosphate receptor 5 (Q9H228 whole entry): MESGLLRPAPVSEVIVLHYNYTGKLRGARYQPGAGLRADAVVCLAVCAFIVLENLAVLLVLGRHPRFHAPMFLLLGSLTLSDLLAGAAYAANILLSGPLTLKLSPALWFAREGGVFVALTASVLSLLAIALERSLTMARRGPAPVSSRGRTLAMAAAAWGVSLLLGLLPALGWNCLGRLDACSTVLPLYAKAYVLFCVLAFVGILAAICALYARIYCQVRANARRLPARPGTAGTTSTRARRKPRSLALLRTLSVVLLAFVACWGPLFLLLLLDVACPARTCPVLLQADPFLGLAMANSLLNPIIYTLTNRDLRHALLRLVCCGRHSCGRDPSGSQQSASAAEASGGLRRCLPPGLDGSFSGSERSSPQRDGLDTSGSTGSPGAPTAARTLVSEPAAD

## CCC(CC)CN1CCN(C(=O)Nc2cc(Oc3ccc(F)cc3)cc(Oc3ccc(C(=O)NC)cc3)c2)CC1
[1]
  Kd: 0.00073 µM
[2]
  Kd: > 0.1 µM
[3]
  Kd: > 0.1 µM
[4]
  half-life at 1 mg/ml: > 48 h
[5]
  half-life at 1 mg/ml: > 48 h
[6]
  half-life at 1 mg/ml: > 48 h
[7]
  remaining at 48 h, 1 mg/ml: 93%
[8]
  remaining at 48 h, 1 mg/ml: 68.9%
HCT-116 [9]
  IC50: > 100 µM
SW620/5-FU [10]
  IC50: 1.99 µM
HT-29 [11]
  IC50: > 100 µM
NCM460
  IC50: > 100 µM
HT-29 [12]
  Activity: Dde
SW620/5-FU [13]
  Activity: Dde
HT-29 [14]
  Activity: Dde
HCT-116 [15]
  fold change (FC): 33
HCT-116 [16]
  fold change (FC): 41
HT-29 [17]
  fold change (FC): 66
SW620/5-FU [18]
  inhibition: Active
SW620/5-FU [19]
  viability at 10 µM: 93.8%
SW620/5-FU [20]
  Activity: Active
SW620/5-FU [21]
  Activity: 3.41%
SW620/5-FU [22]
  Activity: 2.76%
SW620/5-FU [23]
  Activity: 3.76%
SW620/5-FU [24]
  Activity: 4.01%
SW620/5-FU [25]
  Activity: 4.41%
SW620/5-FU [26]
  Activity: 7.76%
SW620/5-FU [27]
  viability at 20 µM: 64.2%
SW620/5-FU [28]
  inhibition in vivo at 5 mg/kg/day: 66.8%
[29]
  Activity: Non-Toxic
HCT-116 [30]
  IC50: 56.4 µM
SW620/5-FU [31]
  IC50: 36.8 µM
HT-29 [32]
  IC50: 42.1 µM
HT-29 [33]
  IC50: 21.8 µM
